Results: patent US7070768B2, “Method for imparting artificial tan to human skin” (Allergan, Inc., priority 2003, dated 2006)

Columns and labels:
eyelashes = conditions: Lumigan ophthalmic solution, applied in the FDA approved manner; cited from earlier work
human skin = assay: Oral bimatoprost tablets in a patient, skin color; assay type: in vivo; conditions: oral tablet, 2 x 100 mg per dose, 3 doses per day, four months
Excerpt: A patient began taking bimatoprost as a tablet.

Substance: cyclopentane N-ethyl heptanamide-5-cis-2-(3α-hydroxy-5-phenyl-1-trans-pentenyl)-3,5-dihydroxy, [bimatoprost, cyclopentane N-ethyl heptanamide-5-cis-2-(3α-hydroxy-5-phenyl-1-trans-pentenyl)-3,5-dihydroxy, [1α,2β,3α,5α]]
- growth of eyelashes (eyelashes): effective to increase the growth of eyelashes
- skin color after treatment (human skin): turned to a dark brown color
